Test results reported in patent publication US4321381A, “Ergot derivatives” (Farmitalia Carlo Erba S.p.A., priority 1978, dated 1982).

How the values were obtained:
[1] = tested on: spontaneously hypertensive male rats, strain MHS; assay: Anti-hypertensive activity in the spontaneously hypertensive rat (MHS): blood pressure and heart rate at the tail; assay type: in vivo
Experimental: 1. Spontaneously Hypertensive Rat (MHS)
Four spontaneously hypertensive male rats, strain MHS, weight 250 to 300 g for each group were used. The animals were treated for four consecutive days. The drugs were administered by gastric gavage while suspended in 5% arabic gum (0.2 ml/100 g body weight), and blood pressure (BP) and heart rate (HR) were measured at the tail by BP Recorder W+W. Blood pressure and heart rate were measured on the first and fourth day of treatment 1 hour before and 1 and 5 hours after drug administration.

normotensive rats = assay: Blood pressure and heart rate in the conscious normotensive rat (NR); assay type: in vivo; details: 5 mg/kg os
Experimental: Blood pressure recordings have been made in conscious normotensive unrestrained rats weighing approximately 300 g, via a catheter chronically inserted into the left common carotid artery. Implantation of arterial cannula was made under sodium pentobarbital anesthesia (50 mg/kp i.p.) A 1 cm long incision was made through the previously shaved ventral surface of the neck and the tissues overlying the trachea parted by blunt dissection to reveal the carotid artery. The polyethylene catheter used was made with PE 50 tubing, previously filled with saline containing 250 I.U./ml heparin. The tip of the cannula was pushed at least 2 cm inside the vessel toward the heart. The cannula was then firmly tied and passed beneath the skin to emerge from a small incision in the back of the neck. During the post-operative period and before the start of each recording session, the cannula was flushed through daily with saline containing heparin (250 I.U./ml). The experiments were performed two days after surgery. Drugs were administered by gastric gavage.

[2] = Acute toxicity (LD50) in mice; assay type: in vivo, mouse; details: mouse, in vivo; male mice; oral; observed for seven days
From the text: Evaluation of the Toxicity (LD50)
Ten male mice for each group were orally treated with drugs at different dose levels for the determination of lethal dose 50 (LD50).

CN1C[C@H](CC(C#N)C(N)=O)C[C@@H]2c3cccc4[nH]cc(c34)C[C@H]21 (stereo partly drawn) [355/1057, 2-Cyano-3-(6'-methylergoline-8'β)-propionamide]
Change in BP, 1 hr after dose, first day ([1]; 2 mg/kg os): -25 mm Hg | Change in HR, 1 hr after dose, first day ([1]; 2 mg/kg os): 0 b/min | Change in HR, 5 hr after dose, first day ([1]; 2 mg/kg os): -8 b/min | Change in BP, 5 hrs after dose, first day ([1]; 2 mg/kg os): 0 mm Hg | Change in BP, 1 hr after dose, fourth day ([1]; 2 mg/kg os): -26 mm Hg | Change in HR, 1 hr after dose, fourth day ([1]; 2 mg/kg os): -2 b/min | Change in HR, 5 hr after dose, fourth day ([1]; 2 mg/kg os): -5 b/min | Change in BP, 5 hrs after dose, fourth day ([1]; 2 mg/kg os): -31 mm Hg | Change in BP, 1 hr after dose, first day ([1]; 5 mg/kg os): -51 mm Hg | Change in HR, 1 hr after dose, first day ([1]; 5 mg/kg os): +5 b/min | Change in HR, 5 hr after dose, first day ([1]; 5 mg/kg os): +35 b/min | Change in BP, 5 hrs after dose, first day ([1]; 5 mg/kg os): -41 mm Hg | Change in BP, 1 hr after dose, fourth day ([1]; 5 mg/kg os): -45 mm Hg | Change in HR, 1 hr after dose, fourth day ([1]; 5 mg/kg os): +25 b/min | Change in HR, 5 hr after dose, fourth day ([1]; 5 mg/kg os): +20 b/min | Change in BP, 5 hrs after dose, fourth day ([1]; 5 mg/kg os): -31 mm Hg | Change in Blood Pressure after Treatment, 30' (normotensive rats): -23 mm Hg | Change in heart rate after treatment, 30' (normotensive rats): -25 b/min | Change in Blood Pressure after Treatment, 60' (normotensive rats): -23 mm Hg | Change in heart rate after treatment, 60' (normotensive rats): -40 b/min | Change in Blood Pressure after Treatment, 120' (normotensive rats): -22 mm Hg | Change in heart rate after treatment, 120' (normotensive rats): -42 b/min | Change in Blood Pressure after Treatment, 180' (normotensive rats): -21.7 mm Hg | Change in heart rate after treatment, 180' (normotensive rats): -22 b/min | Change in Blood Pressure after Treatment, 240' (normotensive rats): -23 mm Hg | Change in heart rate after treatment, 240' (normotensive rats): +10 b/min | Change in Blood Pressure after Treatment, 360' (normotensive rats): -20 mm Hg | Change in heart rate after treatment, 360' (normotensive rats): +3 b/min | Change in Blood Pressure after Treatment, 24h (normotensive rats): -12 mm Hg | Change in heart rate after treatment, 24h (normotensive rats): +6 b/min | LD50 at 168 h [2]: > 1000 mg/kg

C=CCN1C[C@H](CC(C#N)C(N)=O)C[C@@H]2c3cccc4[nH]cc(c34)C[C@H]21 (stereo partly drawn) [355/1266, 2-Cyano-3-(6'-allylergoline-8'β)-propionamide]
Change in BP, 1 hr after dose, first day ([1]; 2 mg/kg os): -14 mm Hg | Change in BP, 5 hrs after dose, first day ([1]; 2 mg/kg os): -15 mm Hg | Change in BP, 1 hr after dose, fourth day ([1]; 2 mg/kg os): -25 mm Hg | Change in BP, 5 hrs after dose, fourth day ([1]; 2 mg/kg os): -45 mm Hg | Change in BP, 1 hr after dose, first day ([1]; 5 mg/kg os): -14 mm Hg | Change in BP, 5 hrs after dose, first day ([1]; 5 mg/kg os): -10 mm Hg | Change in BP, 1 hr after dose, fourth day ([1]; 5 mg/kg os): -35 mm Hg | Change in BP, 5 hrs after dose, fourth day ([1]; 5 mg/kg os): -60 mm Hg

CCCN1C[C@H](CC(C#N)C(=O)NCC)C[C@@H]2c3cccc4[nH]cc(c34)C[C@H]21 (stereo partly drawn) [355/1281, 2-Cyano-3-(6'-n-propylergoline-8'β)-N-ethyl-propionamide]
Change in BP, 1 hr after dose, first day ([1]; 5 mg/kg os): -25 mm Hg | Change in BP, 5 hrs after dose, first day ([1]; 5 mg/kg os): -15 mm Hg | Change in BP, 1 hr after dose, fourth day ([1]; 5 mg/kg os): -30 mm Hg | Change in BP, 5 hrs after dose, fourth day ([1]; 5 mg/kg os): -35 mm Hg

CCCN1C[C@H](CC(C#N)C(N)=O)C[C@@H]2c3cccc4[nH]cc(c34)C[C@H]21 (stereo partly drawn) [355/1282, 2-Cyano-3-(6'n-propylergoline-8'β)-propionamide]
Change in BP, 1 hr after dose, first day ([1]; 2 mg/kg os): -20 mm Hg | Change in BP, 5 hrs after dose, first day ([1]; 2 mg/kg os): -10 mm Hg | Change in BP, 1 hr after dose, fourth day ([1]; 2 mg/kg os): -15 mm Hg | Change in BP, 5 hrs after dose, fourth day ([1]; 2 mg/kg os): -25 mm Hg | Change in BP, 1 hr after dose, first day ([1]; 5 mg/kg os): -40 mm Hg | Change in BP, 5 hrs after dose, first day ([1]; 5 mg/kg os): -45 mm Hg | Change in BP, 1 hr after dose, fourth day ([1]; 5 mg/kg os): -25 mm Hg | Change in BP, 5 hrs after dose, fourth day ([1]; 5 mg/kg os): -30 mm Hg

C=CCN1C[C@H](CC(C#N)C(=O)NCC)C[C@@H]2c3cccc4[nH]cc(c34)C[C@H]21 (stereo partly drawn) [355/1320, 2-Cyano-3-(6'-allylergoline-8'β)-N-ethylpropionamide]
Change in BP, 1 hr after dose, first day ([1]; 5 mg/kg os): -30 mm Hg | Change in BP, 5 hrs after dose, first day ([1]; 5 mg/kg os): -20 mm Hg | Change in BP, 1 hr after dose, fourth day ([1]; 5 mg/kg os): -20 mm Hg | Change in BP, 5 hrs after dose, fourth day ([1]; 5 mg/kg os): -15 mm Hg

N#CC(CC1CC2c3cccc4[nH]cc(c34)CC2N(CC2CC2)C1)C(N)=O (stereo not drawn) [355/1323, 2-Cyano-3-(6'-methylcyclopropylergoline-8'β)-propionamide]
Change in BP, 1 hr after dose, first day ([1]; 5 mg/kg os): -15 mm Hg | Change in BP, 5 hrs after dose, first day ([1]; 5 mg/kg os): -20 mm Hg | Change in BP, 1 hr after dose, fourth day ([1]; 5 mg/kg os): -20 mm Hg | Change in BP, 5 hrs after dose, fourth day ([1]; 5 mg/kg os): -30 mm Hg

CCNC(=O)C(C#N)CC1CC2c3cccc4[nH]cc(c34)CC2N(CC2CC2)C1 (stereo not drawn) [355/1324, 2-Cyano-3-(6'-methylcyclopropylergoline-8β)-N-ethylpropionamide]
Change in BP, 1 hr after dose, first day ([1]; 5 mg/kg os): -20 mm Hg | Change in BP, 5 hrs after dose, first day ([1]; 5 mg/kg os): -40 mm Hg | Change in BP, 1 hr after dose, fourth day ([1]; 5 mg/kg os): -40 mm Hg | Change in BP, 5 hrs after dose, fourth day ([1]; 5 mg/kg os): -35 mm Hg

CC(C)N1C[C@H](CC(C#N)C(N)=O)C[C@@H]2c3cccc4[nH]cc(c34)C[C@H]21 (stereo partly drawn) [Example 37, 2-Cyano-3-(6'-isopropylergoline-8'β)-propionamide]
Change in BP, 1 hr after dose, first day ([1]; 5 mg/kg os): -30 mm Hg | Change in BP, 5 hrs after dose, first day ([1]; 5 mg/kg os): -25 mm Hg | Change in BP, 1 hr after dose, fourth day ([1]; 5 mg/kg os): -45 mm Hg | Change in BP, 5 hrs after dose, fourth day ([1]; 5 mg/kg os): -35 mm Hg

CCNC(=O)C(C#N)C[C@@H]1C[C@@H]2c3cccc4[nH]cc(c34)C[C@H]2N(C(C)C)C1 (stereo partly drawn) [Example 38, 2-Cyano-3-(6'-isopropylergoline-8'β)-N-ethyl propionamide]
Change in BP, 1 hr after dose, first day ([1]; 5 mg/kg os): -20 mm Hg | Change in BP, 5 hrs after dose, first day ([1]; 5 mg/kg os): -10 mm Hg | Change in BP, 1 hr after dose, fourth day ([1]; 5 mg/kg os): -32 mm Hg | Change in BP, 5 hrs after dose, fourth day ([1]; 5 mg/kg os): -28 mm Hg

CN1C[C@H](CC(C#N)C(=O)NCc2ccccc2)C[C@@H]2c3cccc4[nH]cc(c34)C[C@H]21 (stereo partly drawn) [Example 1131, 2-Cyano-3-(6'-methylergoline-8'β)-N-benzylpropionamide]
Change in BP, 1 hr after dose, first day ([1]; 2 mg/kg os): -26 mm Hg | Change in HR, 1 hr after dose, first day ([1]; 2 mg/kg os): -20 b/min | Change in HR, 5 hr after dose, first day ([1]; 2 mg/kg os): +5 b/min | Change in BP, 5 hrs after dose, first day ([1]; 2 mg/kg os): -9 mm Hg | Change in BP, 1 hr after dose, fourth day ([1]; 2 mg/kg os): -22 mm Hg | Change in HR, 1 hr after dose, fourth day ([1]; 2 mg/kg os): -55 b/min | Change in HR, 5 hr after dose, fourth day ([1]; 2 mg/kg os): +5 b/min | Change in BP, 5 hrs after dose, fourth day ([1]; 2 mg/kg os): -25 mm Hg | Change in BP, 1 hr after dose, first day ([1]; 5 mg/kg os): -48 mm Hg | Change in HR, 1 hr after dose, first day ([1]; 5 mg/kg os): -18 b/min | Change in HR, 5 hr after dose, first day ([1]; 5 mg/kg os): +10 b/min | Change in BP, 5 hrs after dose, first day ([1]; 5 mg/kg os): -43 mm Hg | Change in BP, 1 hr after dose, fourth day ([1]; 5 mg/kg os): -17 mm Hg | Change in HR, 1 hr after dose, fourth day ([1]; 5 mg/kg os): +18 b/min | Change in HR, 5 hr after dose, fourth day ([1]; 5 mg/kg os): -8 b/min | Change in BP, 5 hrs after dose, fourth day ([1]; 5 mg/kg os): -16 mm Hg | Change in Blood Pressure after Treatment, 30' (normotensive rats): -22 mm Hg | Change in heart rate after treatment, 30' (normotensive rats): -20 b/min | Change in Blood Pressure after Treatment, 60' (normotensive rats): -22 mm Hg | Change in heart rate after treatment, 60' (normotensive rats): -30 b/min | Change in Blood Pressure after Treatment, 120' (normotensive rats): -23 mm Hg | Change in heart rate after treatment, 120' (normotensive rats): -20 b/min | Change in Blood Pressure after Treatment, 180' (normotensive rats): -20 mm Hg | Change in heart rate after treatment, 180' (normotensive rats): -20 b/min | Change in Blood Pressure after Treatment, 240' (normotensive rats): -19 mm Hg | Change in heart rate after treatment, 240' (normotensive rats): -10 b/min | Change in Blood Pressure after Treatment, 360' (normotensive rats): -10 mm Hg | Change in heart rate after treatment, 360' (normotensive rats): +10 b/min | Change in Blood Pressure after Treatment, 24h (normotensive rats): 0 mm Hg | Change in heart rate after treatment, 24h (normotensive rats): +10 b/min | LD50 at 168 h [2]: > 1000 mg/kg
